Measurements reported in PubChem BioAssay (NCI).
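Compound exposure: 48 hours, 5 concentrations, 96-well plates. Definition used: TGI = concentration required for complete inhibition of growth.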

Legend:
Test in all cases: NCI-60 cell line screen, 48 h
SW-620 colon = tested on: SW-620 colon
SK-MEL-2 melanoma = tested on: SK-MEL-2 melanoma
UO-31 renal = tested on: UO-31 renal
MCF7 breast = tested on: MCF7 breast
TK-10 renal = tested on: TK-10 renal
SF-539 CNS = tested on: SF-539 CNS
SF-295 CNS = tested on: SF-295 CNS
U251 CNS = tested on: U251 CNS
MDA-N = tested on: MDA-N
RPMI-8226 leukemia = tested on: RPMI-8226 leukemia
IGROV1 ovarian = tested on: IGROV1 ovarian
HT29 colon = tested on: HT29 colon
KM12 colon = tested on: KM12 colon
HS 578T breast = tested on: HS 578T breast
MDA-MB-231 breast = tested on: MDA-MB-231 breast
DU-145 prostate = tested on: DU-145 prostate
MDA-MB-435 = tested on: MDA-MB-435
LOX IMVI melanoma = tested on: LOX IMVI melanoma
OVCAR-8 ovarian = tested on: OVCAR-8 ovarian
SNB-19 CNS = tested on: SNB-19 CNS
BT-549 breast = tested on: BT-549 breast
786-0 renal = tested on: 786-0 renal
OVCAR-5 ovarian = tested on: OVCAR-5 ovarian
NCI/ADR-RES ovarian = tested on: NCI/ADR-RES ovarian
MALME-3M melanoma = tested on: MALME-3M melanoma
A549 NSCLC = tested on: A549 NSCLC
ACHN renal = tested on: ACHN renal
SK-MEL-28 melanoma = tested on: SK-MEL-28 melanoma
NCI-H522 lung = tested on: NCI-H522 lung
M14 melanoma = tested on: M14 melanoma
UACC-257 melanoma = tested on: UACC-257 melanoma
UACC-62 melanoma = tested on: UACC-62 melanoma
HOP-92 NSCLC = tested on: HOP-92 NSCLC
NCI-H460 lung = tested on: NCI-H460 lung
HOP-62 NSCLC = tested on: HOP-62 NSCLC
SF-268 CNS = tested on: SF-268 CNS
A498 renal = tested on: A498 renal
SK-OV-3 ovarian = tested on: SK-OV-3 ovarian
SK-MEL-5 melanoma = tested on: SK-MEL-5 melanoma
K-562 leukemia = tested on: K-562 leukemia
T-47D breast = tested on: T-47D breast
SN12C renal = tested on: SN12C renal
SNB-75 CNS = tested on: SNB-75 CNS
COLO 205 colon = tested on: COLO 205 colon
OVCAR-4 ovarian = tested on: OVCAR-4 ovarian
CAKI-1 renal = tested on: CAKI-1 renal
OVCAR-3 ovarian = tested on: OVCAR-3 ovarian
HCT-15 colon = tested on: HCT-15 colon
RXF 393 renal = tested on: RXF 393 renal
EKVX NSCLC = tested on: EKVX NSCLC
PC-3 prostate = tested on: PC-3 prostate
NCI-H226 lung = tested on: NCI-H226 lung
HCT-116 colon = tested on: HCT-116 colon
NCI-H23 lung = tested on: NCI-H23 lung

SMILES: O=C(CON1C(=O)c2ccccc2C1=O)c1ccccc1
- TGI (SW-620 colon): 69.1 µM
- TGI (SK-MEL-2 melanoma): > 100 µM
- TGI (UO-31 renal): 40.7 µM
- TGI (MCF7 breast): > 100 µM
- TGI (TK-10 renal): 55 µM
- TGI (SF-539 CNS): > 100 µM
- TGI (SF-295 CNS): > 100 µM
- TGI (U251 CNS): > 100 µM
- TGI (MDA-N): > 100 µM
- TGI (RPMI-8226 leukemia): 40.4 µM
- TGI (IGROV1 ovarian): > 100 µM
- TGI (HT29 colon): > 100 µM
- TGI (KM12 colon): > 100 µM
- TGI (HS 578T breast): > 100 µM
- TGI (MDA-MB-231 breast): > 100 µM
- TGI (DU-145 prostate): > 100 µM
- TGI (MDA-MB-435): > 100 µM
- TGI (LOX IMVI melanoma): > 100 µM
- TGI (OVCAR-8 ovarian): > 100 µM
- TGI (SNB-19 CNS): > 100 µM
- TGI (BT-549 breast): > 100 µM
- TGI (786-0 renal): > 100 µM
- TGI (OVCAR-5 ovarian): > 100 µM
- TGI (NCI/ADR-RES ovarian): > 100 µM
- TGI (MALME-3M melanoma): 56.9 µM
- TGI (A549 NSCLC): > 100 µM
- TGI (ACHN renal): > 100 µM
- TGI (SK-MEL-28 melanoma): > 100 µM
- TGI (NCI-H522 lung): 36.6 µM
- TGI (M14 melanoma): > 100 µM
- TGI (UACC-257 melanoma): > 100 µM
- TGI (UACC-62 melanoma): > 100 µM
- TGI (HOP-92 NSCLC): > 100 µM
- TGI (NCI-H460 lung): > 100 µM
- TGI (HOP-62 NSCLC): > 100 µM
- TGI (SF-268 CNS): > 100 µM
- TGI (A498 renal): > 100 µM
- TGI (SK-OV-3 ovarian): > 100 µM
- TGI (SK-MEL-5 melanoma): > 100 µM
- TGI (K-562 leukemia): > 100 µM
- TGI (T-47D breast): 52.6 µM
- TGI (SN12C renal): > 100 µM
- TGI (SNB-75 CNS): > 100 µM
- TGI (COLO 205 colon): > 100 µM
- TGI (OVCAR-4 ovarian): > 100 µM
- TGI (CAKI-1 renal): 34.8 µM
- TGI (OVCAR-3 ovarian): > 100 µM
- TGI (HCT-15 colon): > 100 µM
- TGI (RXF 393 renal): > 100 µM
- TGI (EKVX NSCLC): > 100 µM
- TGI (PC-3 prostate): > 100 µM
- TGI (NCI-H226 lung): > 100 µM
- TGI (HCT-116 colon): > 100 µM
- TGI (NCI-H23 lung): > 100 µM
